Source: ChEMBL document CHEMBL5291721, “A preclinical secondary pharmacology resource illuminates target-adverse drug reaction associations of marketed drugs” (Nat Commun, 2023)

Tests used:
[1] = target: T1, Thromboxane A2 receptor (Homo sapiens, UniProt P21731); format: functional, cell-based
T1 sequence (P21731 whole entry): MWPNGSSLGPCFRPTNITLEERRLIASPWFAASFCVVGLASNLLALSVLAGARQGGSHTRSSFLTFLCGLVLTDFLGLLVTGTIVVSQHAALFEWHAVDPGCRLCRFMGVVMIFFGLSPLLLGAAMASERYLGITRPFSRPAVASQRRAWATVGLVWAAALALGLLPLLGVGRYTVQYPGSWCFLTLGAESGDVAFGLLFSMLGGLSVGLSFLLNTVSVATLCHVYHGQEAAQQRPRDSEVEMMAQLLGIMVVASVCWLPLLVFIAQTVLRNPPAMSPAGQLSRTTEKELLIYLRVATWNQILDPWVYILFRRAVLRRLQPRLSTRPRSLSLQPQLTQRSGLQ

[2] = target: Sodium-dependent noradrenaline transporter (Homo sapiens, UniProt P23975)
[3] = target: Histamine H2 receptor (Homo sapiens, UniProt P25021); format: functional, cell-based
[4] = target: T2, Gastrin/cholecystokinin type B receptor (Homo sapiens, UniProt P32239)
T2 sequence (P32239 whole entry): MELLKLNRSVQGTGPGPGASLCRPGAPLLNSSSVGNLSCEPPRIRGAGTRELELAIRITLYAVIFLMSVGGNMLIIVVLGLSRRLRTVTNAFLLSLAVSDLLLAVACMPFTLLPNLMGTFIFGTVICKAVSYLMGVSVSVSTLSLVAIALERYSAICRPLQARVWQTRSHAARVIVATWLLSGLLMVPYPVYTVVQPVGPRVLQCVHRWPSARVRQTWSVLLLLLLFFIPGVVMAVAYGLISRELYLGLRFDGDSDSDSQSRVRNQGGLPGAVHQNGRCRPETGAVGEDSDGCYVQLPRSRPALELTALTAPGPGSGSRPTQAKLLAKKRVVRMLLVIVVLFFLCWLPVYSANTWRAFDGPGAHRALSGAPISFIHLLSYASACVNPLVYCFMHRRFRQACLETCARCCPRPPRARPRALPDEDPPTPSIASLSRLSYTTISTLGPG

[5] = target: T3, 5-hydroxytryptamine receptor 1A (Homo sapiens, UniProt P08908); format: functional, cell-based
T3 sequence (P08908 whole entry): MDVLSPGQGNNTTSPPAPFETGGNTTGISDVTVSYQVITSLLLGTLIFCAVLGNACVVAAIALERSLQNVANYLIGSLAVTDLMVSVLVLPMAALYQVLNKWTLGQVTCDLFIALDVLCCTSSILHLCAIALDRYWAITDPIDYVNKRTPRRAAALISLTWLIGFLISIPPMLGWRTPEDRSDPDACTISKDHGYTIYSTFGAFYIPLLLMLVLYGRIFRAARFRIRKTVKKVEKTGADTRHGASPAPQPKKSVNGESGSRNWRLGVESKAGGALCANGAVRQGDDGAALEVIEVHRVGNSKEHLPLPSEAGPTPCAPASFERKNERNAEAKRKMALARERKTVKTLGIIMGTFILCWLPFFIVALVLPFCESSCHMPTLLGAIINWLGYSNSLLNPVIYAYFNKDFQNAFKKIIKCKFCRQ

[6] = target: T4, Estrogen receptor (Homo sapiens, UniProt P03372)
T4 sequence (P03372 whole entry): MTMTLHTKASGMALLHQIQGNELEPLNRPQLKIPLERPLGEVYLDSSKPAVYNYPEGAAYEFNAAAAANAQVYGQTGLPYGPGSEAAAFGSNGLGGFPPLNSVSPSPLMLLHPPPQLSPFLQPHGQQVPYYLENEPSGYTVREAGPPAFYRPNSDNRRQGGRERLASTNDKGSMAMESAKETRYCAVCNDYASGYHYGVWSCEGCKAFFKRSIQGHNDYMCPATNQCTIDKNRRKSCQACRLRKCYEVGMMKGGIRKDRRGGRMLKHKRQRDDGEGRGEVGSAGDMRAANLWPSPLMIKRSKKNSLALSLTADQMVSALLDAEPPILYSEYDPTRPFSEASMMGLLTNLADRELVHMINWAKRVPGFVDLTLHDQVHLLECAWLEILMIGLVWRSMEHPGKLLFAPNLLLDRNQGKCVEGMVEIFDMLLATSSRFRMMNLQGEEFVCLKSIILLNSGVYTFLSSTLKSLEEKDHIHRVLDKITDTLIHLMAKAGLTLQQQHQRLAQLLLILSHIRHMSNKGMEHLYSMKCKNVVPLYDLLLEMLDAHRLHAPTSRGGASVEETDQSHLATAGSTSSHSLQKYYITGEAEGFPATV

[7] = target: 3',5'-cyclic-AMP phosphodiesterase 4A (Homo sapiens, UniProt P27815); format: functional
[8] = target: T5, Alpha-1A adrenergic receptor (Homo sapiens, UniProt P35348); format: functional, cell-based
T5 sequence (P35348 whole entry): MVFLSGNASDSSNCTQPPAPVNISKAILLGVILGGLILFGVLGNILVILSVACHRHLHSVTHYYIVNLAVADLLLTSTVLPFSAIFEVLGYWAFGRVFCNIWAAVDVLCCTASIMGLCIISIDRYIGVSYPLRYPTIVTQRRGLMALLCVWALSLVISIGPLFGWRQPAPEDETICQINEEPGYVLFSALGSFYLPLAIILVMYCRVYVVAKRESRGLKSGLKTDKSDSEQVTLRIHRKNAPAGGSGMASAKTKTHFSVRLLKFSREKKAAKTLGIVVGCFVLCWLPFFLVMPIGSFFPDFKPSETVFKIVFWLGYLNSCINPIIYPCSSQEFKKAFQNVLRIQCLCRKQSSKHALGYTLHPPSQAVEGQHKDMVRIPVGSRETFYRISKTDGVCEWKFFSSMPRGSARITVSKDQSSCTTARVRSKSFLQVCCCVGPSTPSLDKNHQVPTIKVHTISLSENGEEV

[9] = target: T6, Muscarinic acetylcholine receptor M1 (Homo sapiens, UniProt P11229); format: functional
T6 sequence (P11229 whole entry): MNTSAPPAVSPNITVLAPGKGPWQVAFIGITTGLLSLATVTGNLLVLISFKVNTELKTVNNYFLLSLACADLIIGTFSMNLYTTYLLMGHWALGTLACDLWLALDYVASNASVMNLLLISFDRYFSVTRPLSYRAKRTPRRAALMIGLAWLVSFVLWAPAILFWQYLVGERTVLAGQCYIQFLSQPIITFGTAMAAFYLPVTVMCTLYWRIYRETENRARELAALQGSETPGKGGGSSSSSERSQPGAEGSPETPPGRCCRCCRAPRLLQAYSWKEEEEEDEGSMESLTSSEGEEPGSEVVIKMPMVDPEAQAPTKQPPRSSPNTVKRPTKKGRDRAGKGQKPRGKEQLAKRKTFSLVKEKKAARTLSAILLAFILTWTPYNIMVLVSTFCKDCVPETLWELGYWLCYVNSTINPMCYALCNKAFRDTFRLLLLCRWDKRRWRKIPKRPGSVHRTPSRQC
Further: assay procedure not described here.

Chain of Histamine H2 receptor (P25021 whole entry): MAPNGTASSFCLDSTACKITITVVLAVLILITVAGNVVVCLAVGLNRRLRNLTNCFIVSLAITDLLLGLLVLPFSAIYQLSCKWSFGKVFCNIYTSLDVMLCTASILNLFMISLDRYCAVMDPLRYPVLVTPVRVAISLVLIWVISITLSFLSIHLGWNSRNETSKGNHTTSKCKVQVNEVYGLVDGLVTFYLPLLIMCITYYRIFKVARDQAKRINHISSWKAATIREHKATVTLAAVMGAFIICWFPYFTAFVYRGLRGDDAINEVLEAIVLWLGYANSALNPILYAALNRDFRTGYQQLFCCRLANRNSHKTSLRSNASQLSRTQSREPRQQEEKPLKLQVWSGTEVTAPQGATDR
Chain of Sodium-dependent noradrenaline transporter (P23975 whole entry): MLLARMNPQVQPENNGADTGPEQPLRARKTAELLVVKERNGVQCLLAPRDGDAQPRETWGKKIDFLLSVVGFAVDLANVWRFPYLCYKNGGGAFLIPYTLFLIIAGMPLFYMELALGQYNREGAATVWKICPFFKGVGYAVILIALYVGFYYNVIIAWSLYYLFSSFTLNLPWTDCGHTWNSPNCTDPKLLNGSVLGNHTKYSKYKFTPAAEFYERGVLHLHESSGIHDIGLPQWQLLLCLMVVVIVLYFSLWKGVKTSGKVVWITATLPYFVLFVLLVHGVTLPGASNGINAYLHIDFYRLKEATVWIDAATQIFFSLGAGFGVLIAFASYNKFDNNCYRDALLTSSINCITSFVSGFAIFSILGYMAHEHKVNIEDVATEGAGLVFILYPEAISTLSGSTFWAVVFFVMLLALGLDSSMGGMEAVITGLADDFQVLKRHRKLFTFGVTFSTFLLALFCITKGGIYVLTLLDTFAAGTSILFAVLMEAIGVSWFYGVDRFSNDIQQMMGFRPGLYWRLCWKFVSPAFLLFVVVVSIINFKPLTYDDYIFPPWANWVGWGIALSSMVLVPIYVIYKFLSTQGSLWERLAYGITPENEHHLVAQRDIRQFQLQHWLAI
Chain of 3',5'-cyclic-AMP phosphodiesterase 4A (P27815 whole entry): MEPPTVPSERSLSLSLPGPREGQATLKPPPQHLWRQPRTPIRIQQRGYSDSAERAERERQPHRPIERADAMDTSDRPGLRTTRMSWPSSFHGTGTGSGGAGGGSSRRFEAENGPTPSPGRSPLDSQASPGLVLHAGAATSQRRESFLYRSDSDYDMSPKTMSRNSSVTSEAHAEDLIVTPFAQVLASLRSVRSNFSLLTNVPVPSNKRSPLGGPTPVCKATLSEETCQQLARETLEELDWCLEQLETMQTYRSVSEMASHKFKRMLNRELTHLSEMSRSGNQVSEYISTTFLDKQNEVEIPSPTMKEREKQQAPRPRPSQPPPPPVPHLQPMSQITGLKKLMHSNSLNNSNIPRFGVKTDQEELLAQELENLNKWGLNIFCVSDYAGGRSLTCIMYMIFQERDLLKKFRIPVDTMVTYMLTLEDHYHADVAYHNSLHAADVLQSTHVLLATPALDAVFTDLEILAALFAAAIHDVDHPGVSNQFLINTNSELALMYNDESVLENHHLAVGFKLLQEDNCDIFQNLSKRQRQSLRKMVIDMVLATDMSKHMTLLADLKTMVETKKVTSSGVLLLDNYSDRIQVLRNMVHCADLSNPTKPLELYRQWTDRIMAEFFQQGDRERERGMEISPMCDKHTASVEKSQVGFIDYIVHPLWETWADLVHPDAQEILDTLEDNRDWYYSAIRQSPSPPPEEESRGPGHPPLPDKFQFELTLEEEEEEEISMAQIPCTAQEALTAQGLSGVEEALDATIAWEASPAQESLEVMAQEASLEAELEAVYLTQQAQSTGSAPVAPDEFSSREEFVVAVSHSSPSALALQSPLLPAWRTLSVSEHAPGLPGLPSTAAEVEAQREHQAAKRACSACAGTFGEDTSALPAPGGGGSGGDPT

| SMILES | AC50 [1] | AC50 [2] | AC50 [3] | AC50 [4] | AC50 [5] | AC50 [6] | AC50 [7] | AC50 [8] | AC50 [9] |
| --- | --- | --- | --- | --- | --- | --- | --- | --- | --- |
| Nc1nc(N)c2nc(-c3ccccc3)c(N)nc2n1 | > 30 µM | 16.1 µM | > 30 µM | > 30 µM | > 10 µM | > 30 µM | 20.8 µM | > 30 µM |  |
| C[C@H]1O[C@H](O[C@H]2[C@H](O)[C@@H](O)[C@@H](O[C@H]3[C@H](O)[C@@H](O)C(O)O[C@@H]3CO)O[C@@H]2CO)[C@H](O)[C@@H](O)[C@@H]1N[C@H]1C=C(CO)[C@@H](O)[C@H](O)[C@H]1O (some centres undefined) [ACARBOSE] | > 30 µM | > 30 µM | > 10 µM | > 30 µM | > 10 µM |  | 5.08 µM | > 30 µM |  |
| Oc1ncnc2[nH]ncc12 [ALLOPURINOL] | > 30 µM | > 30 µM | > 10 µM | > 30 µM | > 10 µM | > 30 µM | > 30 µM | > 30 µM |  |
| COc1cc(Nc2c(C#N)cnc3cc(OCCCN4CCN(C)CC4)c(OC)cc23)c(Cl)cc1Cl [BOSUTINIB] | > 3 µM | 24.1 µM |  | > 30 µM |  | > 30 µM | > 30 µM |  | > 10 µM |
| CN(CCOc1ccc(NS(C)(=O)=O)cc1)CCc1ccc(NS(C)(=O)=O)cc1 [DOFETILIDE] | > 30 µM | > 30 µM | > 30 µM | > 30 µM | > 10 µM | > 30 µM | > 30 µM | > 30 µM | > 10 µM |
| COc1cc2c(cc1OC)C(=O)C(CC1CCN(Cc3ccccc3)CC1)C2 (centres undefined) [DONEPEZIL] | > 30 µM | 9.13 µM | > 10 µM | > 30 µM |  | > 30 µM | > 30 µM |  | 8.2 µM |
| CC(C)C(=O)Nc1ccc([N+](=O)[O-])c(C(F)(F)F)c1 [FLUTAMIDE] | 18.4 µM | > 30 µM | > 30 µM | > 30 µM | > 10 µM | > 10 µM | > 30 µM | > 30 µM |  |
| OCCN1CCN(CCCN2c3ccccc3C=Cc3ccccc32)CC1 [OPIPRAMOL] | > 30 µM | 6.62 µM | > 30 µM | > 30 µM | > 30 µM | > 30 µM | > 30 µM | > 30 µM | > 30 µM |
| CCc1ccc(CCOc2ccc(CC3SC(=O)NC3=O)cc2)nc1 (centres undefined) [PIOGLITAZONE] | 9.68 µM | > 30 µM | > 10 µM | > 30 µM | > 10 µM | > 30 µM | > 10 µM |  |  |
| CC(C(=O)O)c1ccc(N2CC=CC2)c(Cl)c1 (centres undefined) [PIRPROFEN] | > 30 µM | > 30 µM | > 10 µM | > 30 µM | > 10 µM | > 30 µM | > 30 µM | > 30 µM | > 10 µM |
| NC(=O)c1cnccn1 [PYRAZINAMIDE] | > 30 µM | > 30 µM | > 30 µM | > 30 µM | > 10 µM | > 30 µM | > 30 µM | > 30 µM |  |
| O=C(NC[C@H]1CN(c2ccc(N3CCOCC3=O)cc2)C(=O)O1)c1ccc(Cl)s1 [RIVAROXABAN] | > 3 µM | > 30 µM |  |  |  |  | > 30 µM | > 30 µM | > 30 µM |
| Cc1cc2c(cc1CC(=O)c1sccc1S(=O)(=O)Nc1onc(C)c1Cl)OCO2 [SITAXENTAN] | > 10 µM | > 30 µM |  |  |  |  | 25 µM |  |  |
| CC(C)OC(=O)[C@H](C)N[P@](=O)(OC[C@H]1O[C@@H](n2ccc(=O)[nH]c2=O)[C@](C)(F)[C@@H]1O)Oc1ccccc1 [SOFOSBUVIR] | > 30 µM | > 30 µM |  |  |  |  | > 30 µM |  |  |
| CS(=O)(=O)c1ccc([C@@H](O)[C@@H](CO)NC(=O)C(Cl)Cl)cc1 [THIAMPHENICOL] | > 30 µM | > 30 µM | > 30 µM | > 30 µM | > 30 µM | > 30 µM | > 30 µM | > 30 µM |  |
| Cc1ccc(O)c2ncccc12 [TILIQUINOL] | > 30 µM | 6.22 µM |  |  |  |  | > 30 µM |  |  |
| CC(=O)OC[C@H]1O[C@@H](n2ccc(=O)[nH]c2=O)[C@H](OC(C)=O)[C@@H]1OC(C)=O [URIDINE TRIACETATE] | > 30 µM | > 30 µM |  |  |  |  | > 30 µM |  |  |
| CCOC(=O)N[C@@H]1CC[C@@H]2[C@@H](C1)C[C@H]1C(=O)O[C@H](C)[C@H]1[C@H]2/C=C/c1ccc(-c2cccc(F)c2)cn1 [VORAPAXAR] | > 10 µM | 4.56 µM |  |  |  |  | > 30 µM |  |  |
